From patent EP2319852A1, “Triphenylphosphine derivatives” (Universitat Autònoma De Barcelona, priority 2009, dated 2011)

What was measured:
[1] = Determination of water solubility of the sodium salts of the phosphines; assay type: physicochemical; conditions: saturated supernatant evaporated to dryness and weighed
Protocol: 3. Determination of water solubility of trifluoromethylated sulfonated phosphines of Formula (I)
Oversaturated aqueous solutions of the sodium salts of the phosphines of Formula (I) were prepared. The supernatant solution was ultracentrifugated, and then filtered through a nylon filter, a measured weight of this solution was evaporated to dryness and the solid residue was weighed.

[2] = Aerial oxidation of the phosphines in aqueous solution, followed by 31P{1H} NMR; assay type: physicochemical; conditions: for Oxidation percentage over time: distilled water, 5.10^-2 mM, open to air, vigorous stirring; for oxidize in the air: 5·10^-2 mM aqueous solution, room temperature
Protocol: 4. Aerial oxidation of the phosphines in aqueous solution
Solutions in distilled water (1 mL, 5.10^-2 mM ) of the phosphines represented below were prepared with the aim of comparing their inertness against aerial oxidation. The solutions were kept opened to air under vigorous stirring for 120 h. Aliquots were taken and analyzed by ^31P{^1H} NMR in order to quantify the oxidation progress.

O=S(=O)(O)c1cccc(P(c2cc(C(F)(F)F)cc(C(F)(F)F)c2)c2cc(C(F)(F)F)cc(C(F)(F)F)c2)c1 [Phosphine 5]
solubility thermodynamic [1]: 2 to 12 mg/mL

O=S(=O)([O-])c1cccc(P(c2ccccc2)c2cccc(S(=O)(=O)[O-])c2)c1.[Na+].[Na+] [Na2TPPDS]
Oxidation percentage over time ([2]; 0 h): 0%
oxidize in the air ([2]; 16 h): about 5%
Oxidation percentage over time ([2]; 16 h): 6%
Oxidation percentage over time ([2]; 40 h): 33%
Oxidation percentage over time ([2]; 120 h): 100%

O=S(=O)(O)c1cccc(P(c2ccc(C(F)(F)F)cc2)c2ccc(C(F)(F)F)cc2)c1 [Phosphine 4]
solubility thermodynamic [1]: 2 to 12 mg/mL

O=S(=O)(O)c1cccc(P(c2ccccc2)c2cc(C(F)(F)F)cc(C(F)(F)F)c2)c1 (centres unmarked) [Phosphine 8]
solubility thermodynamic [1]: > 1000 mg/mL

O=S(=O)(O)c1cccc(P(c2ccccc2C(F)(F)F)c2ccccc2C(F)(F)F)c1 [Phosphine 6]
solubility thermodynamic [1]: 2 to 12 mg/mL

O=S(=O)(O)c1cccc(P(c2ccccc2)c2ccc(C(F)(F)F)cc2)c1 (centres unmarked) [Phosphine 7]
solubility thermodynamic [1]: 500 mg/mL

O=S(=O)([O-])c1cccc(P(c2ccccc2)c2ccccc2)c1.[Na+] [NaTPPMS, triphenylphosphine monosulfonate]
Oxidation percentage over time ([2]; 0 h): 0%
oxidize in the air ([2]; 16 h): about 5%
Oxidation percentage over time ([2]; 16 h): 4%
Oxidation percentage over time ([2]; 40 h): 25%
Oxidation percentage over time ([2]; 120 h): 68%

O=S(=O)(O)c1cccc(P(c2ccccc2)c2ccccc2C(F)(F)F)c1 (centres unmarked) [Phosphine 9]
solubility thermodynamic [1]: 210 mg/mL

O=S(=O)(O)c1cccc(P(c2cccc(S(=O)(=O)O)c2)c2ccccc2C(F)(F)F)c1 [Phosphine 3]
solubility thermodynamic [1]: 30 mg/mL
